Reference: publication PMC3602187, “From Design to Screening: A New Antimicrobial Peptide Discovery Pipeline” (PLoS ONE, 2013)

These substances were tested on Listeria innocua 33090 (assay: colony overlay assay of peptide-secreting E. coli clones (library screening and re-test)). Conditions: library screening; selected colonies pooled by zone size; peptides identified by 454 sequencing, full-length sequences with minimum 20 reads.
Format: cell-based
Set-up: key: higher activity group (H); equal activity group (E); lower activity group (L)
Description: For the in vivo production of AMPs, we have employed an E. coli expression system that relies on periplasmic-expression of recombinant peptides in a host cell that lacks the lpo membrane protein, thus releasing the peptides present in the periplasmic space outside the cells. When the producer cells are grown into colonies on a solid substrate, it leads to accumulation of the recombinant peptides around the colony and allows for easy library screening. The screening assay used in this study was a modified version of the standard agar diffusion method as previously described. Library-transformed E. coli colonies are overlaid with a tester strain and incubated overnight to allow for peptide expression and tester strain growth. Next day, the plates are inspected for the formation of clear growth inhibition zones around E. coli colonies, which is an indication of active AMP production by the host colony.
For the construction of Pln-423 mutant library in E. coli, the expression system that consists of a periplasmic-leaky E. coli strain JE5505 and the expression plasmid pFLAG-CTS was employed for direct screening of peptide activities. It should be noted here that this plasmid contains ompA secretion signal sequence and cleavage of this sequence results in a serine residue at the N-terminal of all mature peptides. A total of 1.0×10^5 colonies, approximately 8-fold coverage of the library, were screened against Listeria innocua 33090 in five separate screening experiments. L. innocua was previously deemed as a suitable indicator for pathogenic L. monocytogenes displaying similar bacteriocin sensitivity, therefore it was used as a surrogate strain throughout this study. The selection process involved two criteria; 1) the size of the each inhibition zone was compared to that of wild-type Pln-423 as a correlation to anti-listerial activity level, 2) when several colonies formed inhibition zones that are very similar in size and character, only a few from each group were selected. The colonies were pooled into three groups based on their activities, giving 43 clones in a higher activity group (H), 81 clones in an equal activity group (E), and 241 clones in a lower activity group (L). Their plasmids were extracted from each activity group and analyzed by both Sanger and 454 high-throughput sequencing to identify peptide sequences.
These clones were also re-tested by colony overlay assay to compare their activities to wild-type Pln-423 based on the size of the inhibition zone around each clone (Figure 2-A). Based on this assay, all ten plantaricin mutants formed larger inhibition zones (10.3±0.5 to 11.4±0.3 mm zone diameter) compared to wild-type Pln-423 (6.2±0.2 mm) against L. innocua 33090. Out of those ten, three clones have a single mutation and […] clones have two mutations and the remaining single clone has three mutations. […] Positions like Ser23, Ser27, His28, and Lys36 were commonly mutated with similar amino acids indicating their potential role on higher peptide activity.
The screening method used in this study was a modified version of the standard colony overlay method as previously described. All the chemicals and growth media supplements were obtained from either Sigma-Aldrich or Fisher Scientific unless otherwise stated. Transformed E. coli JE5505 cells were diluted to 3000–5000 cfu (determined empirically prior to screening by plating serial dilutions of E. coli suspensions of a known absorbance and counting the colonies after incubation) in 25 ml LB soft agar (0.8%, 45°C) per screening plate and poured into 150 mm petri dishes. Once the media was solidified, they were overlaid with 10 ml LB soft agar (45°C) and incubated at 37°C for 24 h for host-colony formation. Next day, these plates were re-overlaid with 10 ml TSB soft agar containing 1 mM IPTG and the indicator strain Listeria innocua ATCC 33090 (diluted to OD600 = 0.03). […]

| Substance | activity group by size of inhibition zone compared to wild-type Pln-423 |
| --- | --- |
| KYYGNGVTCGKHSCSVNWGQAFSCSVSHLANFGMGEC* [Pep-2_10826] | H |
| KYYGNGVTCGKHSCSVNWGQAFSCSVSHLANFGMGYC* [Pep-2_10827] | H |
| KYYGNGVTCGKHSCSVNWGQAFSCSVSHLANFGRGKC* [Pep-1_97] | L |
| KYYGNGVTCGKHSCSVNWGQAFSCSVSHLANFGSGKC* [Pep-1_99] | E |
| KYYGNGVTCGKHSCSVNWGQAFSCSVSHLANFGWGKC* [Pep-1_102] | L |
| KYYGNGVTCGKHSCSVNWGQAFSCSVSHLANFSHGKC* [GROUP L-UM-18] | L |
| KYYGNGVTCGKHSCSVNWGQAFSCSVSHLANGGHGKC* [Pep-1_89] | L |
| KYYGNGVTCGKHSCSVNWGQAFSCSVSHLANIGHGEC* [Pep-2_11890] | L |
| KYYGNGVTCGKHSCSVNWGQAFSCSVSHLANMGHGKC* [Pep-1_88] | H |
| KYYGNGVTCGKHSCSVNWGQAFSCSVSHLAWFGHGHC* [Pep-2_9097] | L |
| KYYGNGVTCGKHSCSVNWGQAFSCSVSHLAWFGHGKC* [Pep-1_84] | L |
| KYYGNGVTCGKHSCSVNWGQAFSCSVSHMANFGHGKC* [Pep-1_70] | L |
| KYYGNGVTCGKHSCSVNWGQAFSCSVSHWANFGHGKC* [GROUP L-UM-32] | L |
| KYYGNGVTCGKHSCSVNWGQAFSCSVSILANFGHGKC* [GROUP L-UM-6] | L |
| KYYGNGVTCGKHSCSVNWGQAFSCSVSKLAHFGHGKC* [Pep-2_8515] | L |
| KYYGNGVTCGKHSCSVNWGQAFSCSVSKMANFGHGKC* [Pep-2_7543] | L |
| KYYGNGVTCGKHSCSVNWGQAFSCSVSNLANFGHGCC* [Pep-2_6834] | L |
| KYYGNGVTCGKHSCSVNWGQAFSCSVSNLANFGHGKC* [Pep-1_63] | E |
| KYYGNGVTCGKHSCSVNWGQAFSCSVSNLANFGHGRC* [Pep-2_6829] | L |
| KYYGNGVTCGKHSCSVNWGQAFSCSVSNLANFGRGKC* [Pep-2_6817] | L |
| KYYGNGVTCGKHSCSVNWGQAFSCSVSRLAAFGHGKC* [Pep-2_6587] | L |

| Substance | activity group by size of inhibition zone compared to wild-type Pln-423 |
| --- | --- |
| KYYGNGVTCGKHSCSVNWGQAFSCSVSRLANFGEGKC* [Pep-2_6602] | H |
| KYYGNGVTCGKHSCSVNWGQAFSCSVSRLANFGHGKC* [Pep-1_61] | E and H |
| KYYGNGVTCGKHSCSVNWGQAFSCSVSRVANFGHGKC* [Pep-2_6574] | L |
| KYYGNGVTCGKHSCSVNWGQAFSCSVSSLANFGHGKC* [GROUP E-UM-3] | E |
| KYYGNGVTCGKHSCSVNWGQAFSCSVSSLANFGHGLC* [Pep-2_12081] | E |
| KYYGNGVTCGKHSCSVNWGQAFSCSVSVLANFGHGKC* [Pep-1_64] | E |
| KYYGNGVTCGKHSCSVNWGQAFSCSVSVLANFGHGNC* [Pep-2_6939] | L |
| KYYGNGVTCGKHSCSVNWGQAFSCSVSVLANFGHNKC* [Pep-2_6933] | L |
| KYYGNGVTCGKHSCSVNWGQAFSCSVSVLANFGNGKC* [Pep-2_6927] | H |
| KYYGNGVTCGKHSCSVNWGQAFSCSVSWLANFGHGKC* [GROUP L-UM-12] | L |
| KYYGNGVTCGKHSCSVNWGQAFSCSVSWLANFGSGKC* [Pep-2_10680] | L |
| KYYGNGVTCGKHSCSVNWGQAFSCSVTHIANFGHGKC* [Pep-2_6142] | L |
| KYYGNGVTCGKHSCSVNWGQAFSCSVTHLANFGHAKC* [Pep-2_6179] | E |
| KYYGNGVTCGKHSCSVNWGQAFSCSVTHLANFGHGKC* [Pep-1_57] | L and E |
| KYYGNGVTCGKHSCSVNWGQAFSCSVTHLANFGHGRC* [Pep-2_6181] | E |
| KYYGNGVTCGKHSCSVNWGQAFSCSVTHLANFGLGKC* [Pep-2_6172] | E |
| KYYGNGVTCGKHSCSVNWGQAFSCSVTHLASFGHGKC* [Pep-2_6153] | L |
| KYYGNGVTCGKHSCSVNWGQAFSCSVTILANFGHGKC* [Pep-2_6136] | L |
| KYYGNGVTCGKHSCSVNWGQAFSCSVVHIANFGHGKC* [Pep-2_6250] | H |
| KYYGNGVTCGKHSCSVNWGQAFSCSVVHLANFGHGKC* [Pep-1_58] | L and E |
| KYYGNGVTCGKHSCSVNWGQAFSCSVVHLVNFGHGKC* [Pep-2_6256] | L |

| Substance | activity group by size of inhibition zone compared to wild-type Pln-423 |
| --- | --- |
| KYYGNGVTCGKHSCSVNWGQAFSCSWSHLANYGHGKC* [Pep-2_5835] | L |
| KYYGNGVTCGKHSCSVNWGQAFSCTVEHLANFGHGKC* [Pep-2_6015] | E and H |
| KYYGNGVTCGKHSCSVNWGQAFSCTVSHLANFGHGKC* [GROUP L-UM-28] | L |
| KYYGNGVTCGKHSCSVNWGQAFSCTVSNLANFGHGKC* [Pep-2_6771] | L and E and H |
| KYYGNGVTCGKHSCSVNWGQAFSCVVRHLANFGHGKC* [Pep-2_4939] | L |
| KYYGNGVTCGKHSCSVNWGQAFSCVVSHIANFGHGKC* [Pep-2_4954] | L |
| KYYGNGVTCGKHSCSVNWGQAFSCVVSHLANFGHGKC* [Pep-1_46] | L |
| KYYGNGVTCGKHSCSVNWGQAFSCVVSHLANFGHGTC* [Pep-2_4995] | L |
| KYYGNGVTCGKHSCSVNWGQAFSCVWSHLANFGHGKC* [Pep-2_4938] | L |
| KYYGNGVTCGKHSCSVNWGQAFSCWVSHLANFGHGKC* [GROUP L-UM-15] | L |
| KYYGNGVTCGKHSCSVNWGQAFSCYASHLANFGHGKC* [Pep-2_5691] | L |
| KYYGNGVTCGKHSCSVNWGQAFSCYMSHLANFGHGAC* [GROUP L-UM-9] | L |
| KYYGNGVTCGKHSCSVNWGQAFVCSNSHLANFGHGKC* [Pep-2_3639] | L |
| KYYGNGVTCGKHSCSVNWGQAFVCSVDHLANFGHGKC* [Pep-2_3644] | E |
| KYYGNGVTCGKHSCSVNWGQAFVCSVRHLANFGHGKC* [Pep-2_3643] | L |
| KYYGNGVTCGKHSCSVNWGQAFVCSVSHLANFGHGKC* [Pep-1_34] | L and E |
| KYYGNGVTCGKHSCSVNWGQAFVCSVSHLANFGHGTC* [Pep-2_3699] | E and H |
| KYYGNGVTCGKHSCSVNWGQAFWCSVSHLANFGHGKC* [Pep-1_36] | L |
| KYYGNGVTCGKHSCSVNWGQAFWCSVSKLANFGHGKC* [Pep-2_3865] | L |
